The record followed here is patent publication US5480892A, “(N-phthalimidoalkyl)piperidines” (The Du Pont Merck Pharmaceutical Company, priority 1994, dated 1996).

Like-named read-outs stand apart in the source and are kept apart here. Bounds are passed on as bounds.

The test system of data set [1] is mescaline-induced scratching in mice. Kind of data set: Mescaline-Induced Scratching in Mice. It counts as in vivo, mouse (male CF1). As to conditions: Mus musculus, 0.75 h, mescaline 25 mg/kg orally, 10 mg/kg po, read-out: Inhibition of Mescaline Scratch (ED50 class). The protocol:
This is a modification of the procedure of Fellows and Cook (in Psychotropic Drugs, ed. by S. Garrattini and V. Ghatti, pp. 397-404, Elsevier, Amsterdam, 1957) and Deegan and Cook (J. Pharmacol. Exp. Ther. 122: 17A, 1958). Male CF1 Mice (Charles River) were injected orally with test compound and placed singly into square (13 cm) Plexiglass observation chambers. Twenty minutes later mice were injected orally with mescaline (25 mg/kg). Beginning 25 minutes after treatment with mescaline (45 minutes after treatment with test compound), scratching episodes were counted during a 5 minute observation period. A scratching episode is defined as a brief (1-2 sec) burst of scratching either the head or the ear with the hind foot.

The target of another data set is T1, Sigma receptor (Cavia porcellus, UniProt Q60492).
T1 construct: Brain membranes were prepared by the method of Tam; from tissue; host or cells: guinea pig whole brain membranes
T1 sequence (Q60492 whole entry): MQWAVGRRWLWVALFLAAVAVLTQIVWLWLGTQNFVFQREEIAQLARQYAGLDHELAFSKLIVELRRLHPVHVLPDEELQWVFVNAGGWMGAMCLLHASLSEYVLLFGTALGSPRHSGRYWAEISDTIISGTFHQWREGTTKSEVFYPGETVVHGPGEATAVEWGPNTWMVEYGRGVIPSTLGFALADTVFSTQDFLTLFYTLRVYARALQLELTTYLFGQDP
In words: Sigma Receptor Binding Assay. It counts as guinea pig (male Hartley), brain membranes. Particulars: 1 nM (+)-[3H]SKF 10,047, guinea pig brain membranes, pH 7.4, 45 min room temperature; read-out: Receptor Binding Affinity Sigma (Ki class).

The test system of data set [2] is isolation-induced aggression in mice. Kind of data set: Isolation-Induced Aggression in Mice. It counts as in vivo, mouse (male Balb/c). Particulars: for ED50: Mus musculus, po, 0.25 h, read-out: Inhibition of Isolation-induced Aggression (ED50 class).
Protocol: Male Balb/c mice (Charles River) were used. […] Isolated mice failing to consistently attack an intruder were eliminated from the colony.
Drug testing was carried out by treating the isolated mice with test drugs or standards. Fifteen min after dosing with drugs by the oral route (p.o.), one isolated mouse was removed from its home cage and placed in the home cage of another isolate. Scoring was a yes or no response for each pair. A maximum of 3 min was allowed for an attack and the pair was separated immediately upon an attack. Selection of home cage and intruder mice was randomized for each test. Mice were treated and tested twice a week with at least a 2 day washout period between treatments.
Data set [3] concerns PCP-induced turning behavior in rats. Kind of data set: PCP-Induced Turning Behavior in Rats. It counts as in vivo, rat (male Sprague-Dawley). Particulars: for ED50: Rattus norvegicus, po, 6-OHDA lesioned rats, drug p.o. 20 min before, PCP 1.5 mg/kg s.c., read-out: Inhibition of PCP-induced Turning (ED50 class). Here is the method:
Male Sprague-Dawley rats (CD/CR, Charles River), weighing 190-290 g, were used for surgery. In order to spare […] neurons, rats were injected with 25 mg/kg imipramine intraperitoneal (i.p.) 30 min before surgery. The rats were anesthetized with a 1:1.2 ratio mixture of Xylazine:Ketamine given 0.1 mL/100 g body weight intramuscular (i.m.). A Ringers-Wydaze (100:0.01) solution was given to prevent dehydration. Dopamine was depleted in the right striatum by injecting the neurotoxin 6-hydroxydopamine (6-OHDA) into the substantia nigra of the right cerebral hemisphere. Five mg of 6-OHDA was dissolved in 5 mL of a 0.04% ascorbic acid solution which had been deoxygenated with nitrogen. Five μL of the 6-OHDA solution was injected into the substantia nigra through a 26 gauge needle over a five min period. Stereotaxic injection coordinates were -2.5 mm posterior to bregma, -2.1 mm right of the midsagittal suture, and -8.6 mm below the skull surface with the incisor bar set at +5.0 mm. Following surgery they were given 10 days to recover while housed four per cage (45.0 L×20.0 H×26.0 W) with ALPHA-dri bedding and ad lib access to Pro-Lab rodent chow and deionized water. […] At all times they were housed in the animal care facility under a 12--12 hour light/dark cycle (light on at 6:00 h, light off at 18:00 h).
Rotation rate and direction were determined with Coulbourn Instruments Rotometry Monitors. Clockwise and counter clockwise rotations were recorded at 30 and 60 min intervals. The rats were examined for correct lesion location by testing for rotational activity induced by subcutaneous (s.c.) injections of 3.0 mg/kg D-amphetamine SO4, and 2.0 mg/kg PCP HCl, respectively. These drugs were administered in the following sequence: Amphetamine was given 30 sec before testing. […]
The data was analyzed with an analysis of variance statistical test, and individual comparisons of each dose of test drug to control were made with Dunnett's multiple range test. The ED50 was calculated with a Litchfield and Wilcoxon test using percent of control values.

Data set [4] deals with catalepsy in rats. Kind of data set: Induction of Catalepsy. Particulars: statement on Table III.
A further data set can be described thus: in vivo. Particulars: rat, po.
Data set [5] deals with catalepsy in rats. As to conditions: rat, in vivo.
The next data set has as its target T2, Dopamine (D-2) receptor (Cavia porcellus, UniProt H0VE83).
T2 construct: Membranes were prepared from guinea pig striatum; from tissue; host or cells: guinea pig striatum membranes
In words: Dopamine Receptor Binding. It counts as guinea pig, striatum membranes. Particulars: 0.15 nM [3H]spiperone, guinea pig striatum, pH 7.7, 15 min 37° C.; read-out: Receptor Binding Affinity Dopamine (D-2) (Ki class).

Setting [6] is: mice, p.o., 15 min after dosing.

T2 sequence (H0VE83 1-446): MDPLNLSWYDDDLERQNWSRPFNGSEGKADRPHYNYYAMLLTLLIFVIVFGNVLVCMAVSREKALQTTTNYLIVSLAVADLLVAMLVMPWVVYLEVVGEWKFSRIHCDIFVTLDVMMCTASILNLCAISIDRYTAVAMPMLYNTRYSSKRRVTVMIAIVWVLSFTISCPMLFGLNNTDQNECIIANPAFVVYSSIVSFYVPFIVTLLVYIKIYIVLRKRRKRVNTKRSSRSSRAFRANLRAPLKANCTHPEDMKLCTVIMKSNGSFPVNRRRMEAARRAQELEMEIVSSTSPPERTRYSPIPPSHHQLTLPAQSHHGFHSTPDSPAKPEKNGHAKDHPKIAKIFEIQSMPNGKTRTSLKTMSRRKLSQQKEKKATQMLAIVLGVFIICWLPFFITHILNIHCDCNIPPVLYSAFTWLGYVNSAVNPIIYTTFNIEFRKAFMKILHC
Protocol for Dopamine (D-2) receptor: Membranes were prepared from guinea pig striatum by the method described for sigma receptor binding. The membranes were then resuspended in 50 mM Tris HCl (9 mL per brain).
Nonspecific binding was measured in the presence of 100 nM (+)-butaclamol After 15 min of incubation at 37° C. samples were filtered rapidly through Whatman GF/C glass filters under negative pressure, and washed three times with ice-cold binding buffer (5 mL).
Protocol for Sigma receptor: Male Hartley guinea pigs (250-300 g, Charles River) were sacrificed by decapitation. […] Whole brains were homogenized (20 sec.) in 10 vol (wt/vol) of ice-cold 0.34 M sucrose with a Brinkmann Polytron (setting 8). The homogenate was centrifuged at 920×g for 10 min. The supernatant was centrifuged at 47,000×g for 20 min. The resulting membrane pellet was resuspended in 10 vol (original wt/vol) of 50 mM Tris HCl (pH 7.4) and incubated at 37° C. for 45 min to degrade and dissociate bound endogenous ligands. The membranes were then centrifuged at 47,000×g for 20 min and resuspended in 50 mM Tris HCl (50 mL per brain).
After 45 rain of incubation at room temperature, samples were filtered rapidly through Whatman GF/C glass filters under negative pressure, and washed 3 times with ice-cold Tris buffer (5 mL).
IC50 s were calculated from log-logit plots. Apparent Ki s were calculated from the equation, Ki =IC50 /[1+(L/Kd)], where L is the concentration of radioligand and Kd is its dissociation constant.

The term ED50 denotes the dose that gives a 50% effect, or the effect in half of the subjects. In general, Ki refers to a dissociation constant, usually derived from enzyme kinetics or from competition with a known ligand. With `O=C1C2=C(CCCC2)C(c2ccco2)N1CC1CCN(CCc2ccccc2)CC1` (stereo not shown) [Example 141], the ED50 in data set [1] is below 11 mg/kg. Besides, the Ki at Sigma receptor lay within 1 to 30 nM.
`CCCCC1C2=C(CCCC2)C(=O)N1CC1CCN(CCc2ccccc2)CC1` (stereo not shown) [Example 135]: the ED50 in data set [2] (setting [6]) and in data set [1] was below 11 mg/kg in each case.
As for `CCCC1C2=C(CCCC2)C(=O)N1CC1CCN(CCc2ccccc2)CC1` (stereo not shown) [Example 144], the ED50 in data set [2] (setting [6]) and in data set [1] was below 11 mg/kg throughout.
For `O=C1C2=C(CCCC2)C(c2ccc(F)cc2)N1CC1CCN(CCc2ccccc2)CC1` (stereo not shown) [Example 136], the ED50 in data set [2] (setting [6]) and in data set [1] was below 11 mg/kg throughout. For the same compound, the Ki on Sigma receptor lay in the range of 31 to 100 nM.
Consider `Cc1ccc(C2C3=C(CCCC3)C(=O)N2CC2CCN(CCc3ccccc3)CC2)cc1` (stereo not shown) [Example 143], for which the ED50 in data set [2] (setting [6]) and in data set [1] was below 11 mg/kg each time.
For the compound `CCC(C)C1C2=C(CCCC2)C(=O)N1CC1CCN(CCc2ccccc2)CC1` (stereo not shown) [Example 140], the ED50 in data set [1] was below 11 mg/kg. The Ki on Sigma receptor is 31 to 100 nM.
For the compound `CCCCCCC1C2=C(CCCC2)C(=O)N1CC1CCN(CCc2ccccc2)CC1` (stereo not shown) [Example 138], the ED50 in data set [2] (setting [6]) and in data set [1] was below 11 mg/kg each time. Moreover, at Sigma receptor, the Ki was 1 to 30 nM.
Take `CC1C2=C(CCCC2)C(=O)N1CC1CCN(CCc2ccc(F)cc2)CC1` (stereo not shown) [Example 137]: the ED50 in data set [2] (setting [6]) and in data set [1] was below 11 mg/kg in each case.
Turning to `CC(C)CC1C2=C(CCCC2)C(=O)N1CC1CCN(CCc2ccccc2)CC1` (stereo not shown) [Example 139], the 50% effective dose (ED50) in data set [2] (setting [6]) and in data set [1] was below 11 mg/kg throughout. Besides, the Ki on Sigma receptor lay in the range of 1 to 30 nM.
For `O=C(CCCN1CCC(O)(c2ccc(Cl)cc2)CC1)c1ccc(F)cc1` [haloperidol, reference compound], the ED50 (in data set [2]; in data set [3]; in the data set “in vivo”) was below 11 mg/kg throughout. Moreover, the “inhibiting the isolation-induced aggressive behavior” value in data set [2] (statement on Table II) is “potent activities”. In addition, the “inhibiting PCP-induced turning behavior” value in data set [3] (statement on Table III, rats) was “potent activity”. Also, in the data set on catalepsy in rats [4], the “producing catalepsy” value was “very potent in producing catalepsy”.
For `O=C1[C@H]2CCCC[C@H]2C(=O)N1CC1CCN(CCc2ccccc2)CC1` [Example 3, 2-[1-(2-Phenylethyl)-4-piperidinylmethyl]-cis-3a,4,5,6,7,7a-hexahydro-1H-isoindole-1,3(2H)-dione], the “producing catalepsy” value in the data set on catalepsy in rats [5] was “does not produce catalepsy”. For the same compound, the values for the ED50 (in data set [2] (setting [6]); in data set [3]; in “in vivo”) were 11 to 20 mg/kg, 21 to 70 mg/kg and above 70 mg/kg, respectively. Also, the Ki was 1 to 30 nM on Sigma receptor and above 500 nM on Dopamine (D-2) receptor.
In the case of `O=C1C2=C(CCCC2)C(c2cccs2)N1CC1CCN(CCc2ccccc2)CC1` (stereo not shown) [Example 142], the ED50 in data set [1] was below 11 mg/kg. For the same compound, on Sigma receptor, the Ki is 1 to 30 nM.
The matching figures for `O=C1C2=C(CCCC2)C(c2ccccc2)N1CC1CCN(CCc2ccccc2)CC1` (stereo not shown) [Example 134]: below 11 mg/kg and 31 to 100 nM.
